SMILES strings stand for the structures.

These results are taken from ChEMBL document CHEMBL1131112, “Matrix metalloproteinase inhibitors: a structure-activity study” (J Med Chem, 1998).

Test [1] has as its target 72 kDa type IV collagenase (Homo sapiens, UniProt P08253).
Description: Binding affinity towards 72 kDa gelatinase (Matrix metalloprotease-2)
Test [2] addresses Neutrophil collagenase (Homo sapiens, UniProt P22894).
Description: The compound was tested for its binding affinity towards neutrophil collagenase (Matrix metalloprotease-8)
Test [3] concerns the target Matrix metalloproteinase-9 (Homo sapiens, UniProt P14780).
Description: The compound was tested for its binding affinity towards 92 kDa gelatinase (Matrix metalloprotease-9)

Sequence of 72 kDa type IV collagenase (P08253 whole entry): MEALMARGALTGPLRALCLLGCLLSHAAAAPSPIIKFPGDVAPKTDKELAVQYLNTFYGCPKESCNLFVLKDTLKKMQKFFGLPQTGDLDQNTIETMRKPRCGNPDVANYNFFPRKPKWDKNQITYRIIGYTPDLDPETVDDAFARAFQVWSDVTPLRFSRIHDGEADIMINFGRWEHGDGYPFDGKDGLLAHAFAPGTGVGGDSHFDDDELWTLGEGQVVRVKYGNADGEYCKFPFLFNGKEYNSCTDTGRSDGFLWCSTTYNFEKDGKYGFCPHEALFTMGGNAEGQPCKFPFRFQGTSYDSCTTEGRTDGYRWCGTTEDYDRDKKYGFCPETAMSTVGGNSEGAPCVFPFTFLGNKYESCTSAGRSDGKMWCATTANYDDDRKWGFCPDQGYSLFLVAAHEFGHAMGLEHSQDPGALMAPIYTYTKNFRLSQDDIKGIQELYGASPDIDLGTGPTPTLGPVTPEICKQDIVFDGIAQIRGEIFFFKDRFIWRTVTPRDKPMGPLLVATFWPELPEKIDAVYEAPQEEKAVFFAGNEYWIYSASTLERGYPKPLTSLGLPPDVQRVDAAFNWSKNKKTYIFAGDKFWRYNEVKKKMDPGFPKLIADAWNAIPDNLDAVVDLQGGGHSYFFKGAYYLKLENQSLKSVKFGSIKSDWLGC
Sequence of Matrix metalloproteinase-9 (P14780 whole entry): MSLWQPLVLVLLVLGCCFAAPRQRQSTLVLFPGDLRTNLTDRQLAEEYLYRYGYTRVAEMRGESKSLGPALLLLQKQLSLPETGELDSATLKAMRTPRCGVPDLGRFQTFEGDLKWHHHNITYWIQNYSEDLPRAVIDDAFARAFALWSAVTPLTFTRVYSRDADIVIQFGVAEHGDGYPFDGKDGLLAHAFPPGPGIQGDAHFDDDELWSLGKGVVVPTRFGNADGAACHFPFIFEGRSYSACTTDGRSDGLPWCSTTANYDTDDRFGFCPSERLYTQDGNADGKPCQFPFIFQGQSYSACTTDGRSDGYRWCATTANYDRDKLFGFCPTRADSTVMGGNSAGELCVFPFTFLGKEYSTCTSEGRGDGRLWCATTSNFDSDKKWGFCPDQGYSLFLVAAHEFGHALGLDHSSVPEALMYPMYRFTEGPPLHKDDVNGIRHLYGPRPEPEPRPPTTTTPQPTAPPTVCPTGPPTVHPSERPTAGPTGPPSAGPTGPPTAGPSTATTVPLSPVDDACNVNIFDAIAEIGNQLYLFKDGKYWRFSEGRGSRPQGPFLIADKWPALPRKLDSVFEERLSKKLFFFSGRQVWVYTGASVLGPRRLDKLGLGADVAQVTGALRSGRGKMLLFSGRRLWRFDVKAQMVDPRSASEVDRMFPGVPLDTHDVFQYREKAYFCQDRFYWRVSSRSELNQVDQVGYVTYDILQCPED
Sequence of Neutrophil collagenase (P22894 whole entry): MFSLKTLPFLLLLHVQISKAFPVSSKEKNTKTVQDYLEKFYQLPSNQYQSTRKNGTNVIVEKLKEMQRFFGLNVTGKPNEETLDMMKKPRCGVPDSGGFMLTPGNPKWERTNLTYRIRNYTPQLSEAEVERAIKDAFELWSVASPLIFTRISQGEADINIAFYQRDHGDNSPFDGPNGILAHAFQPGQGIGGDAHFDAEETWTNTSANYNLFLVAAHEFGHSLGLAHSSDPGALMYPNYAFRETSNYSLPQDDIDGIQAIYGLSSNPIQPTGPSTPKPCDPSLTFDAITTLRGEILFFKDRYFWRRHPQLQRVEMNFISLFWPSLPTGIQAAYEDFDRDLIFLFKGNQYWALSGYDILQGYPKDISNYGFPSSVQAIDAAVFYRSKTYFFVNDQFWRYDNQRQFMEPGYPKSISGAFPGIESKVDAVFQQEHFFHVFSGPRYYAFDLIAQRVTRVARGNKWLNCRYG

As for `CC(C)C[C@H](CC(=O)NO)C(=O)N[C@H](Cc1ccncc1)C(=O)NCCc1ccc(O)cc1`, the values for the Ki in test [1], in test [2] and in test [3] were 1.9 nM, 0.33 nM and 1.7 nM, respectively.
For the compound `CC(C)C[C@H](CC(=O)NO)C(=O)N[C@@H](Cc1c[nH]c2ccccc12)C(=O)NCc1ccccc1`, the inhibition constant Ki amounted to 2 nM in test [1], 1.2 nM in test [2] and 5 nM in test [3].
For `CNC(=O)[C@H](Cc1c[nH]c2ccccc12)NC(=O)[C@@H](CC(=O)O)CC(C)C` the same measures were 170 nM, 17 nM and 100 nM.
`CCCCCCCC[C@H](CC(=O)NO)C(=O)N[C@@H](Cc1c[nH]c2ccccc12)C(=O)NC`: the Ki in test [1] worked out at 0.66 nM; in test [2], 1.6 nM; in test [3] it was 0.63 nM.
For `CC(C)C[C@H](CC(=O)NO)C(=O)N[C@@H](Cc1c[nH]c2ccccc12)C(=O)NCCc1ccc(O)cc1` the same measures were 0.52 nM, 0.1 nM and 1.1 nM.
In the same order, the values of `CNC(=O)[C@H](Cc1c[nH]c2ccccc12)NC(=O)[C@@H](CC(=O)NOCC(=O)OC)CC(C)C` are 71000 nM, 460 nM and 580 nM.
In the same order, the values of `CC(C)C[C@H](CC(=O)NO)C(=O)N[C@H](Cc1ccncc1)C(=O)N[C@@H](C)c1ccccc1` are 1.9 nM, 0.7 nM and 2.5 nM.
For the compound `CC(C)C[C@H](CC(=O)NO)C(=O)N[C@H](Cc1ccc2ccccc2c1)C(=O)NCCc1ccc(O)cc1`, the inhibitory constant (Ki) in test [1] amounted to 8.1 nM; in test [2], 4.5 nM; in test [3], 1.7 nM.
Turning to `CNC(=O)[C@H](Cc1c[nH]c2ccccc12)NC(=O)[C@@H](CC(=O)NOC)CC(C)C`, the Ki turned out to be 6.3 nM in test [1], 7.7 nM in test [2] and 7.9 nM in test [3].
Consider `CC(C)C[C@H](CC(=O)NO)C(=O)N[C@@H](Cc1c[nH]c2ccccc12)C(=O)NCCO`, for which the inhibitory constant (Ki) in test [1] was 0.44 nM; in test [2], 0.35 nM; in test [3] it was 0.76 nM.
Consider `CNC(=O)[C@H](Cc1c[nH]c2ccccc12)NC(=O)[C@@H](CC(=O)NOCc1ccccc1)CC(C)C`, for which the values for the Ki in test [1], in test [2] and in test [3] were 11 nM, 16 nM and 13 nM, respectively.
As to `CC(C)C[C@H](CC(=O)NO)C(=O)N(C)[C@@H](Cc1c[nH]c2ccccc12)C(=O)NCCCN1CCOCC1`, the results for the Ki in test [1], in test [2] and in test [3] were 55 nM, 77 nM and 69 nM, respectively.
In the same order, the values of `CC(C)C[C@H](CC(=O)NO)C(=O)N[C@H](Cc1ccc2ccccc2c1)C(=O)NCCCN1CCOCC1` are 3 nM, 4.5 nM and 3.5 nM.
For `CCCC[C@H](CC(=O)NO)C(=O)N[C@@H](Cc1c[nH]c2ccccc12)C(=O)NC` the same measures were 0.57 nM, 0.3 nM and 0.54 nM.
Consider `CC(C)C[C@H](CC(=O)NO)C(=O)N[C@@H](Cc1c[nH]c2ccccc12)C(=O)N(C)C`, for which the results for the Ki in test [1], in test [2] and in test [3] were 19 nM, 8.5 nM and 22 nM, respectively.
For `CNC(=O)[C@@H](Cc1cccc2ccccc12)NC(=O)[C@@H](CC(=O)NO)CC(C)C`, the Ki in test [1] is 0.42 nM; in test [2], 0.64 nM; in test [3] it was 1.3 nM.
For the compound `CNC(=O)[C@H](Cc1c[nH]c2ccccc12)NC(=O)[C@@H](CC(=O)NO)OC(C)C`, the Ki in test [1] amounted to 42 nM; in test [2], 12 nM; in test [3], 18 nM.
Turning to `CCCCCC[C@H](CC(=O)NO)C(=O)N[C@@H](Cc1c[nH]c2ccccc12)C(=O)NC`, the inhibition constant (Ki) in test [1] is 0.21 nM; in test [2], 0.24 nM; in test [3], 0.41 nM.
As for `CCCCCNC(=O)[C@H](Cc1c[nH]c2ccccc12)NC(=O)[C@@H](CC(=O)NO)CC(C)C`, the Ki in test [1] came to 4.6 nM; in test [2], 6.5 nM; in test [3], 7.1 nM.
As to `CC(C)C[C@H](CC(=O)NO)C(=O)N[C@@H](Cc1c[nH]c2ccccc12)C(=O)NCc1nc2ccccc2[nH]1`, the values for the Ki in test [1], in test [2] and in test [3] were 7.3 nM, 5.2 nM and 3 nM, respectively.
For `CC(C)C[C@H](CC(=O)NO)C(=O)N[C@@H](Cc1c[nH]c2ccccc12)C(=O)NCc1ccco1` the same measures were 0.92 nM, 0.49 nM and 1.7 nM.
As for `CNC(=O)[C@@H](CC(C)C)NC(=O)C(CC(C)C)C(O)C(=O)NO` (single isomer, unassigned), the Ki in test [1] is 0.47 nM; in test [2], 0.53 nM; in test [3], 2.3 nM.
In the same order, the values of `CNC(=O)[C@H](Cc1c[nH]c2ccccc12)NC(=O)C(CC(C)C)C(O)C(=O)NO` (single isomer, unassigned) are 0.89 nM, 0.41 nM and 1.7 nM.

As a reminder, the Ki is a dissociation constant, usually derived from enzyme kinetics or from competition with a known ligand. Read a high Ki as weaker binding.
